From patent publication US20130150350A1, “Derivatives of 1-Phenyl-1,5-Dihydro-Benzo[B] [1,4]Diazepine-2,4-Dione as Inhibitors of HIV Replication” (BOEHRINGER INGELHEIM INTERNATIONAL GMBH, priority 2010, published 2013)
Like-named read-outs stand apart in the source and are kept apart here.

What was measured:
[1] = test system: HIV-1 replication in C8166 LTRluc cells; test: C8166 HIV-1 luciferase assay; type: cell-based; details: Human immunodeficiency virus 1, 72 h, inhibition of HIV-1 replication, moi 0.005, 3 days
Procedure: The assay used to measure inhibition of HIV replication is as described in WO 2004/050643, pages 73-75, herein incorporated by reference, with the following modifications:
Serial dilutions of HIV-1 inhibitors are prepared in complete media from DMSO stock solutions. Eleven serial dilutions of desired concentration are prepared in a 1 mL deep well titer plate (96 wells). The 12th well contains complete media with no inhibitor and serves as the positive control. All samples contain the same concentration of DMSO 0.1% DMSO). Inhibitor is added, to triplicate wells, of a 96 well tissue culture treated clear view black microtiter plate (Corning Costar catalogue #3904). The total volume per well is 200 μL of media containing the cells and inhibitor. The last row is reserved for uninfected C8166 LTRluc cells to serve as the background blank control and the first row is media alone.
Count C8166 LTRluc cells and place in a minimal volume of complete RPMI 1640 in a tissue culture flask (ex. 30×10^6 cells in 10 mL media/25 cm^2 flask). Infect cells with HIV-1 at a moi of 0.005. Incubate cells for 1.5 hours at 37° C. on a rotating rack in a 5% CO2 incubator. Resuspend cells in complete RPMI to give a final concentration of 25,000-cells/well. Add cells to wells of 96 well microtiter plate containing inhibitors. Add 25,000 uninfected C8166—LTRluc cells/well in 200 μL complete RPMI to last row for background control. Incubate cells at 37° C. in 5% CO2 incubator for 3 days.

[2] = target: T1, assembled HIV-1 capsid complexes (CA-NC protein, SEQ ID NO: 2) (Human immunodeficiency virus type 1 group M subtype B, UniProt P12493, G226D); test: Capsid disassembly assay (CDA); type: biochemical
T1 construct: HIV-1NL4-3 CA-NC, Gag residues 133-432; initiator Met (start codon introduced by PCR primer) (N); made in house; host or cells: E. coli BL21(DE3), pET-11a
Text: The GAG polyprotein is the major structural protein required for HIV viral particle assembly. During the maturation process, Gag is cleaved by the viral protease and releases its four major proteins, matrix (MA), capsid (CA), nucleocapside (NC) and p6, as well as two spacer peptides termed SP1 and SP2. This triggers profound morphological changes to the viral particle as CA will reassemble to form the viral core, a structure that is essential for viral infectivity.
(§1) SEQ ID NO: 1 is a nucleic acid of 900 base pairs encoding HIV-1NL4-3 CA-NC, Gag residues 133-432, having the CA G94D mutation (SEQ ID NO: 2). SEQ ID NO: 1, is transferred to pET-11a expression vector (Novagen™) by PCR amplification using primers that introduce an NdeI site and a start codon at the 5′-end and a BamHI site and a stop codon at the 3′-end. Resistance mutations in CA were identified by passage of the HIV-1 virus in the presence of compounds of the invention, namely V27A/I, K30R, S33G, V36T, T58I, G61E, G208A/R, E213G, K30R/T58I, K30R/G208R, V36T/G208R, S33G/T58I, S33G/G208R and T58I/G208R, all numbered with reference to SEQ ID NO: 2,. These resistance mutations may be introduced in the expression vector using the QuikChange® II Site-Directed Mutagenesis Kit (Stratagene) according to the manufacturer's instructions. SEQ ID NOS: 2 is expressed in the BL21(DE3) E. coli cells (Novagen™). Briefly, LB media is inoculated with overnight pre-cultures and grown at 37° C. until mid log-phase (Abs600 ˜0.6), protein expression is induced by addition of 0.5-1 mM isopropyl-β,D-thiogalactopyranoside (IPTG) and carried out for 4 to 6 hours at 30° C. Cells are harvested by centrifugation and pellets are stored at −80° C. until purification.
(§2) Purification of CA-NC (SEQ ID NO: 2) is as follows: 5 to 10 g of cell paste are lysed by sonication in 40 ml of Buffer A [20 mM Tris pH 7.5; 1 μM ZnCl2; 10 mM β-mercaptoethanol] supplemented with 0.5M NaCl and Complete EDTA-free® protease inhibitors tablets (Roche). Nucleic acids and cell debris are removed by adding 0.11 volumes of 0.2 M ammonium sulfate and an equivalent volume of 10% poly-(ethyleneimine) pH 8.0, stirring the sample for 20 minutes at 4° C., followed by centrifugation at 30 000×g for 20 minutes. SEQ ID NO: 2 is recovered from the supernatant by adding 0.35 volumes of saturated ammonium sulfate solution followed by centrifugation at 10 000×g for 15 minutes. The pellet is dissolved in 10 ml of Buffer A+0.1 M NaCl and dialyzed overnight in the same buffer but at 0.05 M NaCl (Dialysis Buffer). The sample is then cleared by centrifugation and passed on a 1-ml HiTrapTMSP HP column (GE Healthcare) pre-equilibrated with Dialysis Buffer. SEQ ID NO: 2 is eluted with Buffer A+0.5 M NaCl, fractions containing the protein are pooled; concentration determination is done by Abs280 using the calculated molar extinction coefficient (E=40220 M-1 cm-1).
Reacti-Bind Neutravidin Coated black 384-well plates (Pierce Cat#15402) are washed with 80 μl/well of Buffer A (50 mM Tris pH 8.0; 350 mM NaCl; 10 μM ZnSO4; 0.0025% CHAPS (w/v); 50 μg/ml BSA; 1 mM DTT). Immobilization of a 5′-end biotin labeled (TG)25 oligonucleotide (Integrated DNA Technology Inc.) is carried out by adding 50 μl/well of a 25 nM solution of oligonucleotide in Buffer A+5 mg/ml BSA and incubating overnight. Unbound material is removed by two 80 μl/well washes with Buffer A. Assembly reactions are performed in 60 μl/well reactions comprising 100 nM of 5′-end fluorescein labeled (TG)25 oligonucleotide (Integrated DNA Technology Inc.) and 2 μM of CA-NC protein (SEQ ID NO: 2), using Buffer A. Assembly reactions are incubated for 2 hours at room temperature and non-immobilized material is removed by washing 80 μl/well with Buffer A. Test compounds, serially diluted in Buffer A+0.125% dimethyl sulfoxide (DMSO), are added to the wells (60 μl/well) and incubated at room temperature for 2 hours. […]

[3] = target: T2, HIV-1NL4-3 CA-NC protein (SEQ ID NO: 2) (Human immunodeficiency virus type 1 group M subtype B, UniProt P12493, G226D); test: Immobilized capsid assembly assay (CAA); type: biochemical
T2 construct: HIV-1NL4-3 CA-NC, Gag residues 133-432; initiator Met (start codon introduced by PCR primer) (N); made in house; host or cells: E. coli BL21(DE3), pET-11a
Text: as §1, §2
Reacti-Bind Neutravidin Coated black 384-well plates (Pierce Cat#15402) are washed with 80 μl/well of Buffer A (50 mM Tris pH 8.0; 350 mM NaCl; 10 μM ZnSO4; 0.0025% CHAPS (w/v); 50 μg/ml bovine serum albumin (BSA); 1 mM DTT). Immobilization of a 5′-end biotin labeled (TG)25 oligonucleotide (Integrated DNA Technology Inc.) is carried out by adding 50 μl/well of a 25 nM solution of oligonucleotide in Buffer A+5 mg/ml of BSA (Sigma™) and incubating overnight. Unbound material is removed by two 80 μl/well washes with Buffer A. Assembly reactions are performed in 60 μl/well reactions comprising test compound, 100 nM of 5′-end fluorescein labeled (TG)25 oligonucleotide (Integrated DNA Technology Inc.) and 2 μM of CA-NC protein (SEQ ID NO: 2), using Buffer A+1% DMSO. Assembly reactions are incubated for 2 hours at room temperature and non-immobilized material is removed by two successive 80 μl/well washes with Buffer A. Finally, 80 μl/well of Buffer A+0.1% sodium dodecyl sulfate (SDS) is added and incubated for 15 minutes prior to quantification of captured fluorescence on a Victor2 plate reader (PerkinElmer Life Sciences) equipped with fluorescein excitation and emission filters using the standard manufacturer's settings for fluorescein fluorescence. The amount of captured fluorescence is considered to be proportional to the level of assembly. The IC50 values for each compound are generated by fitting inhibition curves from ten-point dilution series to the following equation: […]

[4] = concentration for 50% disassembly of assembled complexes, 2 hours at room temperature, read-out: IC50 (μM) CDA
[5] = concentration for 50% inhibition of capsid assembly, 2 μM CA-NC, 2 hours at room temperature, read-out: IC50 (μM) CAA

Row | Compound | EC50 [1] [µM] | IC50 [2] [µM] | IC50 [3] [µM] | IC50 [2, 4] [µM] | IC50 [3, 5] [µM]
1 | CCN1C(=O)C2(CCc3ccccc32)C(=O)N(c2ccccc2)c2cc(C(F)(F)F)ccc21 (racemic) [Compound 7001] | 1.5 | 0.46 | 0.73 |  | 
2 | CCN1C(=O)/C(=C/NCCOC)C(=O)N(c2ccccc2)c2cc(Cl)ccc21 [Compound 1004] | 12.7 |  |  | 0.38 | 0.47
3 | COCCN/C=C1/C(=O)N(C)c2ccc(C(F)(F)F)cc2N(c2ccccc2)C1=O [Compound 1011] | 12 | 0.86 | 0.89 |  | 
4 | CCN1C(=O)C(c2ccccc2)C(=O)N(c2ccccc2)c2cc(C(F)(F)F)ccc21 (centres unmarked) [Compound 2002] | 2.6 | 0.48 | 0.73 |  | 
5 | CCN1C(=O)C(c2ccccc2)C(=O)N(c2cccs2)c2cc(C(F)(F)F)ccc21 (centres unmarked) [Compound 2003] | 2.5 | 0.39 | 0.81 |  | 
6 | CN1C(=O)C(c2ccc(O)cc2)C(=O)N(c2ccccc2)c2cc(C(F)(F)F)ccc21 (centres unmarked) [Compound 2009] | 0.9 | 0.14 | 0.91 |  | 
7 | CCN1C(=O)C(c2ccc(CN3CCNCC3)cc2)C(=O)N(c2ccccc2)c2cc(C(F)(F)F)ccc21 (centres unmarked) [Compound 2018] | 0.8 | 0.28 | 0.52 |  | 
8 | CCN1C(=O)C(c2ccc(-c3cccnc3)cc2)C(=O)N(c2ccccc2)c2cc(C(F)(F)F)ccc21 (centres unmarked) [Compound 2030] | 0.4 | 0.32 | 0.39 |  | 
9 | CCN1C(=O)C(c2cccc(-c3cccnc3)c2O)C(=O)N(c2ccccc2)c2cc(C(F)(F)F)ccc21 (centres unmarked) [Compound 2035] | 5.8 |  | 1.28 |  | 
10 | CCCn1cc(-c2cc(C3C(=O)N(CC)c4ccc(C(F)(F)F)cc4N(c4ccccc4)C3=O)cc(OC)c2O)cn1 (centres unmarked) [Compound 2059] | 0.07 | 0.16 | 0.45 |  | 
11 | CCN1C(=O)C(c2cccnc2)C(=O)N(c2ccccc2)c2cc(C(F)(F)F)ccc21 (centres unmarked) [Compound 2076] | 4.1 |  | 1.6 |  | 
12 | CCN1C(=O)N(c2ccccc2)C(=O)N(c2ccccc2)c2cc(C(F)(F)F)ccc21 [Compound 3011] | 0.6 |  |  | 0.18 | 0.63
13 | CCN1C(=O)N(c2ccc(CO)cc2)C(=O)N(c2ccccc2)c2cc(C(F)(F)F)ccc21 [Compound 3027] | 0.7 |  |  | 0.1 | 
14 | CCN1C(=O)N(c2ccc(C(=O)O)cc2)C(=O)N(c2ccccc2)c2cc(C(F)(F)F)ccc21 [Compound 3034] | 2.6 |  |  | 0.27 | 
15 | CCN1C(=O)N(c2ccc(C(=O)NC[C@@H]3CCCN3CC)cc2)C(=O)N(c2ccccc2)c2cc(C(F)(F)F)ccc21 [Compound 3055] | 0.4 |  |  | 0.13 | 
16 | CN1c2ccc(Cl)cc2N(c2ccccc2)C(=O)c2cn(C)nc21 [Compound 4002] | 6.9 |  |  |  | 0.71
17 | CN1c2ccc(Cl)cc2N(c2ccccc2)C(=O)c2c[nH]nc21 [Compound 4007] | 7.8 |  |  |  | 0.31
18 | CN1c2ccc(Cl)cc2N(c2ccccc2)C(=O)c2cn(Cc3ccncc3)nc21 [Compound 4032] | 0.3 |  |  |  | 0.55
19 | CCN1c2ccc(Cl)cc2N(c2ccccc2)C(=O)c2c1ncn2C [Compound 5001] | 1.5 |  |  |  | 0.36
20 | CN1c2ccc(C(F)(F)F)cc2N(c2ccccc2)C(=O)c2c1ncn2C [Compound 5003] | 5.5 |  |  |  | 0.26
21 | CN1c2cccc(F)c2N(c2ccccc2)C(=O)c2c1ncn2C [Compound 5005] | 0.4 |  |  |  | 0.32
22 | COCCNCc1ccc(Cn2cnc3c2C(=O)N(c2ccccc2)c2cc(Cl)ccc2N3C)cc1 [Compound 5026] | 0.9 |  |  |  | 0.17
23 | CN1c2ccc(Cl)cc2N(c2ccccc2)C(=O)c2scnc21 [Compound 6001] | 8.1 |  |  |  | 1
24 | CCN1C(=O)C2(CCc3cc(-c4ccnn4C)ccc32)C(=O)N(c2ccccc2)c2cc(C(F)(F)F)ccc21 (centres unmarked) [Compound 7012] | 0.2 | 0.2 |  |  | 
25 | CCN1C(=O)C2(CCc3c2ccc(-c2cncnc2)c3OC)C(=O)N(c2ccccc2)c2cc(C(F)(F)F)ccc21 (centres unmarked) [Compound 7030] | 0.6 | 0.17 |  |  | 
26 | CCN1C(=O)C2(C=C(C)c3cc(O)ccc32)C(=O)N(c2ccccc2)c2cc(C(F)(F)F)ccc21 (centres unmarked) [Compound 7037] | 1 | 0.3 |  |  | 
